Assay results: PubChem BioAssay AID248 (DTP/NCI, 2004)
Values joined by “and” are separate entries in the source; they are usually repeats but may differ in a detail not shown here. Identical values can stand only once. Toxic doses and inconclusive results are not listed.

Tested on: L1210 leukemia ip in BDF1 mice, survival T/C
Assay: NCI In Vivo Anticancer Drug Screen. Data for tumor model L1210 Leukemia (intraperitoneal) in B6D2F1 (BDF1) mice
Conditions: endpoint: mean survival time, higher = longer survival
In short: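 Transplanted-tumor mice were given test agent; controls received vehicle only. Survival readings from the two groups were divided (treated over control).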

[1] = dose: 100.0 mg/kg/injection, schedule: Q01DX001 (ip), vehicle: Klucel (hydroxypropylcellulose) (HPC)
[2] = dose: 200.0 mg/kg/injection, schedule: Q01DX001 (ip), vehicle: Klucel (hydroxypropylcellulose) (HPC)
[3] = dose: 400.0 mg/kg/injection, schedule: Q01DX001 (ip), vehicle: Klucel (hydroxypropylcellulose) (HPC)
[4] = dose: 12.5 mg/kg/injection, schedule: Q01DX009 (ip), vehicle: Klucel (hydroxypropylcellulose) (HPC)
[5] = dose: 100.0 mg/kg/injection, schedule: Q01DX001 (ip), vehicle: saline with Tween-80
[6] = dose: 200.0 mg/kg/injection, schedule: Q01DX001 (ip), vehicle: saline with Tween-80
[7] = dose: 400.0 mg/kg/injection, schedule: Q01DX001 (ip), vehicle: saline with Tween-80
[8] = dose: 100.0 mg/kg/injection, schedule: Q04DX003 (ip), vehicle: saline
[9] = dose: 200.0 mg/kg/injection, schedule: Q04DX003 (ip), vehicle: saline
[10] = dose: 400.0 mg/kg/injection, schedule: Q04DX003 (ip), vehicle: saline
[11] = dose: 100.0 mg/kg/injection, schedule: Q01DX009 (ip), vehicle: Klucel (hydroxypropylcellulose) (HPC)
[12] = dose: 200.0 mg/kg/injection, schedule: Q01DX009 (ip), vehicle: Klucel (hydroxypropylcellulose) (HPC)
[13] = dose: 400.0 mg/kg/injection, schedule: Q01DX009 (ip), vehicle: Klucel (hydroxypropylcellulose) (HPC)
[14] = dose: 100.0 mg/kg/injection, schedule: Q04DX003 (ip), vehicle: saline with Tween-80
[15] = dose: 200.0 mg/kg/injection, schedule: Q04DX003 (ip), vehicle: saline with Tween-80
[16] = dose: 400.0 mg/kg/injection, schedule: Q04DX003 (ip), vehicle: saline with Tween-80
[17] = dose: 100.0 mg/kg/injection, schedule: Q01DX009 (ip), vehicle: saline with Tween-80
[18] = dose: 200.0 mg/kg/injection, schedule: Q01DX009 (ip), vehicle: saline with Tween-80

CCOC(=O)C1(C(=O)OCC)COC(=O)C1
T/C (dose: 50.0 mg/kg/injection, schedule: Q01DX009 (ip), vehicle: acetone): 94 % of control | T/C (dose: 100.0 mg/kg/injection, schedule: Q01DX009 (ip), vehicle: acetone): 97 % of control | T/C (dose: 100.0 mg/kg/injection, schedule: Q04DX003 (ip), vehicle: acetone): 107 % of control | T/C (dose: 200.0 mg/kg/injection, schedule: Q01DX009 (ip), vehicle: acetone): 100 % of control | T/C (dose: 200.0 mg/kg/injection, schedule: Q04DX003 (ip), vehicle: acetone): 96 % of control | T/C (dose: 400.0 mg/kg/injection, schedule: Q04DX003 (ip), vehicle: acetone): 98 % of control

O=[N+]([O-])c1ccc(C2N=NCCS2)cc1 (stereo unspecified)
T/C [1]: 98 % of control | T/C [2]: 104 % of control | T/C [3]: 95 % of control

C=[CH][Sn]([CH]=C)([CH]=C)[O]C(C)=O
T/C (dose: 1.56 mg/kg/injection, schedule: Q01DX009 (ip), vehicle: Klucel (hydroxypropylcellulose) (HPC)): 103 % of control | T/C (dose: 3.12 mg/kg/injection, schedule: Q01DX009 (ip), vehicle: Klucel (hydroxypropylcellulose) (HPC)): 94 % of control | T/C (dose: 6.25 mg/kg/injection, schedule: Q01DX009 (ip), vehicle: Klucel (hydroxypropylcellulose) (HPC)): 98 % of control | T/C [4]: 103 % of control | T/C (dose: 12.5 mg/kg/injection, schedule: Q04DX002 (ip), vehicle: Klucel (hydroxypropylcellulose) (HPC)): 102 % of control | T/C (dose: 25.0 mg/kg/injection, schedule: Q04DX002 (ip), vehicle: Klucel (hydroxypropylcellulose) (HPC)): 105 % of control

CCOC(=S)c1ccc(S(=O)(=O)NCc2ccccc2)cc1
T/C [5]: 100 % of control | T/C [6]: 102 % of control | T/C [7]: 100 % of control

CN(C)N=Nc1n[nH]nc1C(N)=O
T/C (dose: 50.0 mg/kg/injection, schedule: Q01DX001 (ip), vehicle: saline): 102 % of control | T/C (dose: 66.0 mg/kg/injection, schedule: Q01DX Z (ip), vehicle: carboxymethylcellulose (CMC)): 112 % of control | T/C (dose: 100.0 mg/kg/injection, schedule: Q01DX001 (ip), vehicle: saline): 109 % of control and 118 % of control | T/C (dose: 100.0 mg/kg/injection, schedule: Q01DX009 (ip), vehicle: saline): 113 % of control | T/C (dose: 100.0 mg/kg/injection, schedule: Q01DX Z (ip), vehicle: carboxymethylcellulose (CMC)): 106 % of control | T/C [8]: 98 % of control | T/C (dose: 134.0 mg/kg/injection, schedule: Q01DX009 (ip), vehicle: saline): 117 % of control | T/C (dose: 168.0 mg/kg/injection, schedule: Q01DX Z (ip), vehicle: carboxymethylcellulose (CMC)): 116 % of control | T/C (dose: 200.0 mg/kg/injection, schedule: Q01DX001 (ip), vehicle: saline): 107 % of control and 118 % of control | T/C [9]: 120 % of control | T/C (dose: 287.0 mg/kg/injection, schedule: Q04DX003 (ip), vehicle: saline): 102 % of control | T/C (dose: 287.5 mg/kg/injection, schedule: Q01DX001 (ip), vehicle: saline): 103 % of control | T/C (dose: 400.0 mg/kg/injection, schedule: Q01DX001 (ip), vehicle: saline): 115 % of control | T/C (dose: 400.0 mg/kg/injection, schedule: Q01DX009 (ip), vehicle: saline): 154 % of control | T/C [10]: 124 % of control | T/C (dose: 575.0 mg/kg/injection, schedule: Q01DX001 (ip), vehicle: saline): 109 % of control | T/C (dose: 575.0 mg/kg/injection, schedule: Q04DX003 (ip), vehicle: saline): 110 % of control | T/C (dose: 1150.0 mg/kg/injection, schedule: Q01DX001 (ip), vehicle: saline): 117 % of control | T/C (dose: 1150.0 mg/kg/injection, schedule: Q04DX003 (ip), vehicle: saline): 112 % of control

c1ccc(CSSCc2ccccc2)cc1
T/C [11]: 100 % of control | T/C [8]: 92 % of control | T/C [12]: 96 % of control | T/C [9]: 88 % of control | T/C [13]: 102 % of control | T/C [10]: 92 % of control

COc1c([N+](=O)[O-])cc2c(c1C)OCOC2
T/C [4]: 95 % of control | T/C (dose: 25.0 mg/kg/injection, schedule: Q01DX009 (ip), vehicle: Klucel (hydroxypropylcellulose) (HPC)): 95 % of control | T/C (dose: 50.0 mg/kg/injection, schedule: Q01DX009 (ip), vehicle: Klucel (hydroxypropylcellulose) (HPC)): 95 % of control | T/C [1]: 92 % of control | T/C [2]: 93 % of control | T/C [3]: 102 % of control

CC(=O)Nc1ccc(C(=O)NNC2=C(NNC(=O)c3ccc(NC(C)=O)cc3)C(=O)c3ccccc3C2=O)cc1
T/C (dose: 75.0 mg/kg/injection, schedule: Q04DX003 (ip), vehicle: saline): 100 % of control | T/C (dose: 150.0 mg/kg/injection, schedule: Q04DX003 (ip), vehicle: saline): 91 % of control | T/C (dose: 300.0 mg/kg/injection, schedule: Q04DX003 (ip), vehicle: saline): 91 % of control

CC12c3ccccc3C(C)(c3c1ccc1ccccc31)C1C(=O)OC(=O)C12 (stereo unspecified)
T/C (dose: 25.6 mg/kg/injection, schedule: Q04DX002 (ip), vehicle: Klucel (hydroxypropylcellulose) (HPC)): 88 % of control | T/C (dose: 64.0 mg/kg/injection, schedule: Q04DX002 (ip), vehicle: Klucel (hydroxypropylcellulose) (HPC)): 92 % of control | T/C (dose: 160.0 mg/kg/injection, schedule: Q04DX002 (ip), vehicle: Klucel (hydroxypropylcellulose) (HPC)): 88 % of control | T/C (dose: 400.0 mg/kg/injection, schedule: Q04DX002 (ip), vehicle: Klucel (hydroxypropylcellulose) (HPC)): 98 % of control

N#CCc1ccccc1NC(=O)CCl
T/C [5]: 100 % of control | T/C [6]: 106 % of control | T/C [7]: 108 % of control

CNC(=O)Nc1ccccc1
T/C [14]: 94 % of control | T/C [15]: 90 % of control | T/C [16]: 94 % of control

CC(C)C(NC(=O)C1CSC(C)(C)N1C=O)C(N)=O (stereo unspecified)
T/C [14]: 101 % of control | T/C [15]: 98 % of control | T/C [16]: 101 % of control

N#CC(C#N)=Cc1ccc(Cl)c(Cl)c1
T/C (dose: 50.0 mg/kg/injection, schedule: Q01DX001 (ip), vehicle: other): 102 % of control | T/C (dose: 100.0 mg/kg/injection, schedule: Q01DX001 (ip), vehicle: other): 107 % of control | T/C [11]: 92 % of control | T/C (dose: 100.0 mg/kg/injection, schedule: Q04DX003 (ip), vehicle: Klucel (hydroxypropylcellulose) (HPC)): 96 % of control | T/C (dose: 200.0 mg/kg/injection, schedule: Q01DX001 (ip), vehicle: other): 107 % of control | T/C [12]: 93 % of control | T/C (dose: 200.0 mg/kg/injection, schedule: Q04DX003 (ip), vehicle: Klucel (hydroxypropylcellulose) (HPC)): 102 % of control | T/C [13]: 86 % of control | T/C (dose: 400.0 mg/kg/injection, schedule: Q04DX003 (ip), vehicle: Klucel (hydroxypropylcellulose) (HPC)): 95 % of control

NS(=O)(=O)c1cc[n+]([O-])c2ccccc12
T/C [5]: 97 % of control | T/C [17]: 96 % of control | T/C [6]: 97 % of control | T/C [18]: 94 % of control | T/C [7]: 96 % of control

COc1ccc([N+](=O)[O-])c2conc12
T/C (dose: 50.0 mg/kg/injection, schedule: Q01DX009 (ip), vehicle: saline with Tween-80): 95 % of control | T/C [17]: 98 % of control | T/C [18]: 103 % of control

COC(=O)NC1CCCC1I (stereo unspecified)
T/C (dose: 75.0 mg/kg/injection, schedule: Q01DX001 (ip), vehicle: saline): 102 % of control | T/C (dose: 150.0 mg/kg/injection, schedule: Q01DX001 (ip), vehicle: saline): 109 % of control | T/C (dose: 300.0 mg/kg/injection, schedule: Q01DX001 (ip), vehicle: saline): 98 % of control

CCOC(=O)C(C[N+](C)(CC)CC)c1ccccc1 (stereo unspecified)
T/C (dose: 88.8 mg/kg/injection, schedule: Q01DX001 (ip), vehicle: carboxymethylcellulose (CMC)): 97 % of control and 102 % of control | T/C (dose: 100.0 mg/kg/injection, schedule: Q01DX001 (ip), vehicle: carboxymethylcellulose (CMC)): 113 % of control | T/C (dose: 133.0 mg/kg/injection, schedule: Q01DX001 (ip), vehicle: carboxymethylcellulose (CMC)): 105 % of control and 114 % of control | T/C (dose: 200.0 mg/kg/injection, schedule: Q01DX001 (ip), vehicle: carboxymethylcellulose (CMC)): 107 % of control and 118 % of control | T/C (dose: 300.0 mg/kg/injection, schedule: Q01DX001 (ip), vehicle: carboxymethylcellulose (CMC)): 95 % of control and 104 % of control | T/C (dose: 400.0 mg/kg/injection, schedule: Q01DX001 (ip), vehicle: carboxymethylcellulose (CMC)): 98 % of control
